In the supplement of paper PMC10307832:

Legend:
Assay in all cases: relative viability (nuclei count vs DMSO), 5 days (fraction); higher = more cells survive
Pemetrexed + Lapatinib = compound: Nc1nc2[nH]cc(CCc3ccc(C(=O)N[C@@H](CCC(=O)O)C(=O)O)cc3)c2c(=O)[nH]1 [Pemetrexed] + CS(=O)(=O)CCNCc1ccc(-c2ccc3ncnc(Nc4ccc(OCc5cccc(F)c5)c(Cl)c4)c3c2)o1 [Lapatinib] (partner 2 µM)
Outline: (§1)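 Lung cancer cell lines, seeded in 1536-well plates, were treated the following day by pin tool with a single drug or with five library-drug doses (not always all listed) in √10 steps on top of a fixed anchor-drug dose. Cells were fixed and nuclei stained in one step after 5 days, and nuclei were counted. Relative viability is the nuclei count for treated wells divided by that for vehicle wells, reported as medians of duplicate plates.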

Pemetrexed + Pictilisib = compound: Nc1nc2[nH]cc(CCc3ccc(C(=O)N[C@@H](CCC(=O)O)C(=O)O)cc3)c2c(=O)[nH]1 [Pemetrexed] + CS(=O)(=O)N1CCN(Cc2cc3nc(-c4cccc5[nH]ncc45)nc(N4CCOCC4)c3s2)CC1 [Pictilisib] (partner 1 µM)
Outline: as §1

Pemetrexed + Vorinostat = compound: Nc1nc2[nH]cc(CCc3ccc(C(=O)N[C@@H](CCC(=O)O)C(=O)O)cc3)c2c(=O)[nH]1 [Pemetrexed] + O=C(CCCCCCC(=O)Nc1ccccc1)NO [Vorinostat] (partner 1 µM)
Outline: as §1

Idelalisib + OSI-027 = compound: CC[C@H](Nc1ncnc2[nH]cnc12)c1nc2cccc(F)c2c(=O)n1-c1ccccc1 [Idelalisib] + COc1cccc2cc(-c3nc([C@H]4CC[C@H](C(=O)O)CC4)n4ncnc(N)c34)[nH]c12 [OSI-027] (partner 0.5 µM)
Outline: as §1

Cell Line | relative viability (Pemetrexed + Lapatinib; first compound 0.002 µM) | relative viability (Pemetrexed + Lapatinib; first compound 0.006325 µM) | relative viability (Pemetrexed + Lapatinib; first compound 0.02 µM) | relative viability (Pemetrexed + Lapatinib; first compound 0.06325 µM) | relative viability (Pemetrexed + Lapatinib; first compound 0.2 µM) | relative viability (Pemetrexed + Pictilisib; first compound 0.002 µM) | relative viability (Pemetrexed + Pictilisib; first compound 0.006325 µM) | relative viability (Pemetrexed + Pictilisib; first compound 0.02 µM) | relative viability (Pemetrexed + Pictilisib; first compound 0.06325 µM) | relative viability (Pemetrexed + Pictilisib; first compound 0.2 µM) | relative viability (Pemetrexed + Vorinostat; first compound 0.002 µM) | relative viability (Pemetrexed + Vorinostat; first compound 0.006325 µM) | relative viability (Pemetrexed + Vorinostat; first compound 0.02 µM) | relative viability (Pemetrexed + Vorinostat; first compound 0.06325 µM) | relative viability (Pemetrexed + Vorinostat; first compound 0.2 µM) | relative viability (Idelalisib + OSI-027; first compound 0.04 µM) | relative viability (Idelalisib + OSI-027; first compound 0.1265 µM) | relative viability (Idelalisib + OSI-027; first compound 0.4 µM) | relative viability (Idelalisib + OSI-027; first compound 1.265 µM) | relative viability (Idelalisib + OSI-027; first compound 4 µM)
LXF-289 | 0.822 | 0.862 | 0.949 | 0.899 | 0.874 | 0.756 | 0.759 | 0.844 | 0.827 | 0.701 | 0.625 | 0.758 | 0.795 | 0.74 | 0.718 | 0.879 | 0.782 | 0.632 | 0.813 | 0.764
NCI-H23 | 0.968 | 0.882 | 1.26 | 1.04 | 0.919 | 0.395 | 0.416 | 0.538 | 0.516 | 0.408 | 0.464 | 0.592 | 0.77 | 0.713 | 0.62 | 0.614 | 0.618 | 0.216 | – | 0.537
NCI-H322M | 0.642 | 0.531 | 0.657 | 0.551 | 0.618 | 0.29 | 0.449 | 0.553 | 0.49 | 0.567 | 0.84 | 0.957 | 0.888 | 0.893 | 0.58 | 0.612 | 0.546 | 0.463 | 0.539 | 0.511
NCI-H358 | 0.4 | 0.4 | 0.441 | 0.311 | 0.276 | 0.338 | 0.264 | 0.29 | 0.243 | 0.21 | 0.616 | 0.655 | 0.414 | 0.167 | 0.122 | 0.773 | 0.875 | 0.554 | 0.695 | 0.72
NCI-H460 | 0.892 | 0.856 | 0.963 | 0.276 | 0.0581 | 0.233 | 0.396 | 0.383 | 0.313 | 0.121 | – | 0.683 | 0.784 | 0.57 | 0.0651 | 0.911 | 0.794 | 0.469 | 0.571 | 0.45
NCI-H520 | 0.803 | 0.886 | 0.833 | 0.829 | 0.838 | 0.247 | 0.254 | 0.349 | 0.322 | 0.275 | 0.671 | 0.7 | 0.718 | 0.681 | 0.709 | 0.287 | 0.265 | 0.186 | 0.206 | 0.179
NCI-H596 | 1.03 | 1.09 | 1.07 | 0.82 | 0.644 | 0.399 | 0.348 | 0.436 | 0.348 | 0.344 | 0.707 | 0.577 | 0.576 | 0.468 | 0.385 | 0.859 | 0.746 | 0.666 | 0.65 | 0.551
NCI-H647 | – | 1.08 | 1.16 | 0.889 | 0.264 | 0.283 | 0.449 | 0.355 | 0.382 | 0.202 | 0.387 | 0.479 | 0.594 | 0.458 | 0.171 | 0.758 | 0.64 | – | 0.527 | 0.423
NCI-H650 | 0.829 | 0.924 | 0.524 | 0.849 | 0.841 | 0.831 | 0.756 | 0.861 | 0.786 | 0.851 | 0.378 | 0.552 | – | 0.427 | 0.453 | 0.491 | 0.574 | 0.446 | 0.527 | 0.506
NCI-H661 | 0.731 | 0.503 | 0.593 | 0.417 | 0.586 | 0.487 | 0.402 | 0.438 | – | 0.424 | 0.761 | 0.72 | 0.821 | 0.8 | 0.745 | 0.705 | 0.838 | 0.607 | 0.661 | 0.706
NCI-H727 | 0.802 | 0.825 | 0.634 | 0.844 | 0.773 | 0.398 | 0.399 | 0.415 | 0.378 | 0.369 | 1.18 | 1.12 | 1.26 | 1.16 | 1.06 | 0.749 | 0.708 | 0.45 | 0.562 | 0.52
NCI-H838 | 0.904 | 0.93 | 1.35 | 0.856 | 0.329 | 0.443 | 0.392 | 0.532 | 0.267 | 0.248 | 0.72 | 0.727 | 0.781 | 0.661 | 0.308 | 0.416 | 0.346 | 0.271 | 0.453 | 0.317
NCI-H1355 | 0.783 | 1.05 | 0.991 | 1.04 | 0.975 | 0.294 | 0.383 | 0.377 | 0.481 | 0.428 | 0.526 | 0.603 | 0.667 | 0.599 | 0.62 | 0.401 | 0.476 | 0.273 | 0.401 | 0.366
NCI-H1395 | 0.875 | 1.02 | 1.11 | 0.922 | 0.883 | 0.824 | 0.58 | 0.679 | 0.54 | 0.574 | 0.513 | 0.871 | 0.959 | 0.7 | 0.738 | 0.713 | 0.639 | 0.621 | 0.561 | 0.454
NCI-H1437 | 0.364 | 0.777 | 0.799 | 0.463 | 0.232 | 0.297 | 0.422 | 0.389 | 0.267 | 0.193 | 0.853 | 0.813 | 0.806 | 0.596 | 0.364 | 0.861 | 0.864 | 0.795 | 1.07 | 0.967
NCI-H1650 | 0.804 | 0.699 | 0.8 | 0.505 | 0.349 | 0.545 | 0.559 | 0.658 | 0.333 | 0.226 | 0.521 | 0.671 | 0.634 | 0.443 | 0.234 | 0.641 | 0.602 | 0.478 | 0.578 | 0.536
NCI-H1651 | 0.9 | 0.767 | 0.819 | 0.85 | 0.725 | 0.627 | 0.49 | 0.658 | 0.554 | 0.556 | 0.553 | 0.562 | 0.642 | 0.44 | 0.548 | 0.701 | 0.731 | 0.508 | 0.778 | 0.596
NCI-H1666 | 0.678 | 0.647 | 0.566 | 0.575 | 0.394 | 0.373 | 0.481 | 0.347 | 0.497 | 0.306 | 1.01 | 0.95 | 1.03 | 0.924 | 0.863 | 0.889 | 0.895 | 0.782 | 0.83 | 0.759
NCI-H1734 | 0.724 | 0.995 | 1.13 | 1.01 | 0.525 | 0.461 | 0.457 | 0.489 | 0.475 | 0.376 | 0.794 | 0.725 | 0.931 | 0.778 | 0.708 | 0.659 | 0.593 | 0.404 | 0.579 | 0.537
NCI-H1755 | 0.808 | 1 | 1.03 | 1.04 | 0.894 | 0.327 | 0.416 | 0.532 | 0.45 | 0.318 | 0.716 | 0.813 | 0.776 | 0.751 | 0.624 | 0.69 | 0.687 | 0.584 | 0.675 | 0.573
NCI-H1793 | 0.543 | 0.769 | 0.619 | 0.704 | 0.619 | 0.303 | 0.299 | 0.341 | 0.247 | 0.311 | 0.613 | 0.792 | 0.69 | 0.986 | 0.796 | 0.366 | 0.273 | 0.17 | 0.246 | 0.159
NCI-H1915 | 0.945 | 0.988 | 1.1 | 0.987 | 0.971 | 0.786 | 0.933 | 1.13 | 0.929 | 0.957 | 0.419 | 0.484 | 0.526 | 0.463 | 0.549 | 0.699 | 0.633 | 0.627 | 0.739 | 0.53
NCI-H1944 | 0.866 | 0.766 | 0.846 | 0.834 | 0.839 | 0.307 | 0.345 | 0.337 | 0.345 | 0.327 | 0.43 | 0.487 | 0.565 | 0.592 | 0.531 | 0.473 | 0.411 | 0.271 | 0.396 | 0.365
NCI-H1975 | – | 0.885 | 0.906 | 0.78 | 0.423 | – | 0.3 | 0.299 | 0.271 | 0.221 | 0.666 | 0.721 | 0.699 | 0.588 | 0.308 | 0.819 | 0.764 | 0.61 | 0.917 | 0.429
NCI-H1993 | 0.863 | 0.887 | 0.869 | 0.754 | 0.665 | 0.899 | 0.97 | 0.819 | 0.743 | 0.882 | 0.832 | 0.863 | 0.701 | 0.67 | 0.612 | 0.575 | 0.53 | 0.512 | 0.584 | 0.552
NCI-H2009 | 0.745 | 0.871 | 0.999 | 0.905 | 0.915 | 0.785 | 0.763 | 0.824 | 0.744 | 0.723 | 0.631 | 0.7 | 0.776 | 0.681 | 0.654 | 0.642 | 0.646 | 0.515 | 0.509 | 0.557
NCI-H2023 | 0.292 | 0.726 | 1.01 | 0.66 | 0.202 | 0.136 | 0.231 | 0.237 | 0.218 | 0.117 | 0.306 | 0.595 | 0.676 | 0.372 | 0.15 | 0.473 | 0.339 | 0.285 | 0.278 | 0.313
